“Also recorded” adds a separate entry of the source. Read-outs that look alike come from different tables or passages of the source.
Key:
[1] = molecular target: purified L. tarentolae tubulin (Leishmania tarentolae, UniProt A0A640KCM0+A0A640KQN0); assay: Chemical cross-linking competition with SW223022 probe; format: binding; conditions: 100-fold excess of competitor
[2] = test system: L. amazonensis axenic amastigotes; assay: alamarBlue viability / concentration-response assay, axenic amastigotes; format: cell-based, Leishmania amazonensis
Procedure: (§1) Leishmania amazonensis axenic amastigotes (100 μL, 2×10^6 cells/mL) were added to 96-multiwell plates containing 100 μL of amastigote culture medium with an appropriate compound dilution series. 0.1% DMSO (no drug) served as a positive control (100%), and 5 μM amphotericin B served as a negative growth control (0%). Only internal wells were used to minimize edge effects from evaporation. Axenic amastigotes were incubated at 32° C. with a compound/drug for 72 h prior to measurement. Similarly, the cytotoxicity of each compound was determined against RAW 264.7 cells and HepG2 cell lines, following 72 h incubation at 37° C. (promastigotes at 26° C.).
(§2) 10% alamarBlue® (Thermo Fisher Scientific) was used to measure the growth of both parasite and mammalian cells. Conversion from a blue oxidized state to a pink reduced state was assessed visually at 6 hr. The fluorescence signal was measured with a BioTek Synergy H1 plate reader (530 nm excitation, 570 nm emission). For bioluminescence assays using L. amazonensisluc, relative luminescence units (RLU) were measured using Britelite Plus (PerkinElmer, USA). Luminescence produced by this luciferase reaction is proportional to the amount of luciferase-expressing, viable L. amazonensisluc. Following five-minute incubation at room temperature, the luminescence was measured with a BioTek Synergy H1 plate reader.
All experiments were conducted as three technical triplicates on the same plate, with at least three independent biological repeats of each plate performed. For all assays, percent growth was expressed as a proportion of the untreated (positive) control (i.e. 100%) and plotted against drug/compound concentration. The concentration was then log10 transformed and EC50 values were determined using nonlinear regression (sigmoidal dose-response/variable slope equation) in GraphPad Prism v5.0 (GraphPad Software, Inc., San Diego, CA).
To identify antileishmanial compounds, a microplate-based alamarBlue® assay was used to quickly triage the 400 drug-like compounds available in the MMV Pathogen Box collection. […] A three-step process was used to screen the Pathogen Box: 1) identify hits against axenic amastigotes, 2) confirm the inhibitory concentrations of these hits against axenic amastigotes, 3) evaluate hits for potency against intracellular parasites using fluorescence and bioluminescence-based intracellular assays. The MMV Pathogen Box resource was tested at two concentrations (5 μM and 1 μM, 72 h endpoint) on axenic amastigotes.
Hits were defined as compounds that, at a concentration of 1 μM, decreased the relative fluorescence intensity signal to ≤70% of that produced by parasites incubated in vehicle (0.06% DMSO) only (FIG. 9).

[3] = test system: blood-stage P. falciparum (3D7 strain); assay: Malaria SYBR green I fluorescence (MSF) assay; format: cell-based, Plasmodium falciparum; conditions: 3D7 strain
Procedure: For other parasites, L. donovani, strain MHOM/SD/62/1S-C12D, was grown as previously described. Plasmodium falciparum parasites of the 3D7 strain were cultured in RPMI 1640 medium supplemented with 37.5 mM HEPES, 10 mM D-glucose, 2 mM L-glutamine, 100 μM hypoxanthine, 25 μg/mL gentamicin, 4% (v/v) human serum and 0.25% (v/v) Albumax II, at a 2% haematocrit in an atmosphere of 1% 02, 3% CO2 and 96% N2. Staging and parasitemia of the in vitro culture were assessed by light microscopy of Giemsa-stained thin blood smears.
Compounds were tested against the blood-stage Trypanosoma brucei (48 hr endpoint) and intra-erythrocytic asexual stages Plasmodium falciparum (3D7) using CellTiter-Glo® luminescent and Malaria SYBR green I fluorescence (MSF) assays, respectively. Similar methodology will be used for future experiments.
MMV676477 was tested against several other parasites: the axenic amastigotes of Leishmania donovani and Leishmania tarentolae, blood-stage Plasmodium falciparum, and Trypanosoma brucei. The compound's activity was measured using alamarBlue®, Malaria SYBR green I fluorescence (MSF) and CellTiter-Glo® luminescent assays. […] In addition, MMV676477 has also been recently reported as having potent activity against Neospora caninum, Cryptosporidium parvum, Toxoplasma gondii, and Entamoeba histolytica.

[4] = test system: intracellular L. amazonensis amastigotes; assay: Intramacrophage bioluminescence assay with luciferase-expressing L. amazonensis; format: cell-based, Leishmania amazonensis
Procedure: Intracellular EC50s were estimated with L. amazonensisluc parasites. Briefly, RAW 264.7 cells or BM primary Mϕs were starved overnight, then infected with metacyclic promastigotes at a Multiplicity of Infection (MOI) of 15 and incubated for another 24 h at 37° C. The plates containing infected RAW 264.7 cells/BM primary M4s were washed five times with serum-free DMEM. Serially diluted compounds were added, and plates were incubated at 37° C. for 72 hrs. Bioluminescence signal was measured as described above.
RAW 264.7 cells were used to perform a bioluminescence assay with transgenic luciferase-expressing L. amazonensis (FIG. 1C).

Cytotoxicity, alamarBlue = format: cell-based; conditions: mouse, RAW 264.7 macrophage cells, read-out: CC50^72 h cytotoxicity (macrophage / mammalian cells)
Procedure: as §1
as §2, with “reader. […]” for “reader.”

[5] = test system: L. amazonensis promastigotes and amastigotes; assay: Microscopic analysis of cell division; format: cell-based, Leishmania amazonensis; conditions: 48 h at EC50^72 h
Procedure: (§3) Promastigotes or amastigotes were treated with the indicated compound concentrations and allowed to adhere to poly-L-lysine coated plates. All cells were fixed with 4% paraformaldehyde and permeabilized/blocked with 0.01% Triton X-100 and 2% BSA in PBS. Promastigotes and amastigotes were incubated with mouse anti-gp46 or anti-p8, respectively at 1:50 or 1:1000 and rat anti-alpha-tubulin antibody at 1:1000. Samples were then probed with A568 anti-mouse and […] secondary antibodies (Molecular Probes). DNA was labeled with Hoescht. Samples were visualized on a Zeiss LSM 880 Inverted confocal Airyscan microscope at 63×; full Z-thicknesses through parasites were obtained. […] For microscopic analysis of mitotic arrest, at least 200 parasites were analyzed per condition per experiment after 48 hrs incubation at compounds' EC50, and the average plus standard error for three experiments was calculated. Representative images were selected from the maximal intensity projections and linearly processed in Adobe Photoshop CS6.
The molecular target of MMV676477 was investigated.

[6] = test system: L. amazonensis promastigotes and amastigotes; assay: Tubulin intensity by confocal immunofluorescence microscopy; format: cell-based, Leishmania amazonensis; conditions: 24 h at EC50^72 h
Procedure: as §3
One reason why MMV676477 might affect parasite cell division is that, like paclitaxel, it might affect microtubule polymerization, either directly or indirectly. The degree to which MMV676477 affected microtubules polymerization in cells was examined. […] Centrifugation of these extracts allowed separation of insoluble polymeric (pellet) and soluble dimeric (supernatant) tubulin. […] The intensity of α-tubulin staining was examined by normalizing it to the intensity of a membrane protein (gp46 for promastigotes in FIG. 4D; p8 for amastigotes in FIG. 4E).

[7] = test system: intracellular L. amazonensis amastigotes; assay: Intracellular washout assay (LD50); format: cell-based, Leishmania amazonensis
Procedure: Intracellular LD50s were measured. Briefly, RAW 264.7 cells were seeded to 96-multiwell plates at a density of 2×10^5 cells/mL (200 μL) and starved overnight at 37° C. The cells were infected with metacyclic promastigotes at a Multiplicity of Infection (MOI) of 15 and incubated for another 24 h at 37° C. The plates containing infected RAW 264.7 cells/BM primary M #s were washed five times with serum-free DMEM. Serially diluted compounds were added, and plates were incubated at 37° C. for 72 hrs. Wells were washed five times with DMEM, and the RAW 264.7 cells were lysed with 100 μL of 2 mg/mL saponin in DMEM for 5 min at room temperature, and further lysis was stopped with 100% FBS. After centrifugation, 200 μL acidic promastigotes media was replaced, plates were incubated at 26° C. for 96 h. Fluorescence intensity (alamarBlue®) was measured as described above.
All routine in vitro quantification of antileishmanial drug potency is quantification of “cytostatic” potency. […] Therefore, the cytocidal action of MMV676477 was quantified by obtaining an LD50 at 72 h (a Lethal Dose that kills 50% of the bulk population of the parasites relative to untreated control) and compared it to the known cytocidal drug amphotericin. An intracellular washout assay was employed. […] The ratio of LD50:EC50 was calculated for MMV676477 and amphotericin. Lower ratios indicate that the LD50 is similar to the EC50 value, meaning that the estimated EC50 values represent killing of the parasites rather than simple growth inhibition.

[8] = Leishmania amazonensis, 72 h, axenic amastigotes; read-out: EC50^72 h against L. amazonensis axenic amastigotes
[9] = Pathogen Box screen, 1 μM, 72 h

CSc1ccccc1C(=O)Oc1cc(C)nc(-n2nc(C)cc2N)n1 [SW10]
competition with SW223022 probe (fluorescent tubulin band) [1]: No apparent competition

C#CCOc1ccc(C(=O)c2ccc(C(=O)Nc3cc(C)nn3-c3nc(C)c(CC)c(=O)[nH]3)cc2)cc1 [SW223022, N-(1-(5-Ethyl-4-methyl-6-oxo-1,6-dihydropyrimidin-2-yl)-3-methyl-1H-pyrazol-5-yl)-4-(4-(prop-2-yn-1-yloxy)benzoyl)benzamide]
EC50 ([2]; 72 h, axenic amastigotes; read-out: EC50^72 h against L. amazonensis axenic amastigotes): 156 nM | EC50 [2, 8]: 160 nM

CCc1c(C)nc(-n2nc(C)cc2NC(C)=O)[nH]c1=O [SW223023, N-(1-(5-Ethyl-4-methyl-6-oxo-1,6-dihydropyrimidin-2-yl)-3-methyl-1H-pyrazol-5-yl) acetamide]
competition with SW223022 probe (fluorescent tubulin band) [1]: No apparent competition

CCc1c(C)nc(-n2nc(C)cc2NC(=O)c2ccc(F)c(Cl)c2)[nH]c1=O [SW223041, 3-Chloro-N-(1-(5-ethyl-4-methyl-6-oxo-1,6-dihydropyrimidin-2-yl)-3-methyl-1H-pyrazol-5-yl)-4-fluorobenzamide]
potency against blood-stage P. falciparum relative to MMV676477 [3]: 3-4 fold | potency against L. amazonensis intracellular amastigotes relative to MMV676477 [4]: 3-4 fold | CC50 at 72 h (Cytotoxicity, alamarBlue): 2400 nM | competition with SW223022 probe (fluorescent tubulin band) [1]: almost completely absent | EC50 [2, 8]: 20 nM | improvement of potency against L. amazonensis compared to MMV676477 ([2]; fold vs MMV676477): four to five-fold improved potency; also recorded: about four-fold improved activity

CCc1c(C)nc(-n2nc(C)cc2N)[nH]c1=O [SW223075, 2-(5-amino-3-methyl-1H-pyrazol-1-yl)-5-ethyl-6-methylpyrimidin-4(3H)-one]
percentage of L. amazonensis undergoing cell division [5]: no effect on cell division | EC50 [2, 8]: 290 nM | tubulin intensity over control (DMSO-treated) [6]: did not increase tubulin intensity

CCc1c(C)nc(-n2nc(C)cc2NC(=O)Nc2ccc(OC)cc2)[nH]c1=O [SW223102, 1-(1-(5-Ethyl-4-methyl-6-oxo-1,6-dihydropyrimidin-2-yl)-3-methyl-1H-pyrazol-5-yl)-3-(4-methoxyphenyl)urea]
competition with SW223022 probe (fluorescent tubulin band) [1]: less-pronounced dimming | EC50 [2, 8]: 2400 nM

C[C@@H]1[C@H](O)[C@@H](C)/C=C/C=C/C=C/C=C/C=C/C=C/C=C/[C@H](O[C@@H]2O[C@H](C)[C@@H](O)[C@H](N)[C@@H]2O)C[C@@H]2O[C@](O)(C[C@@H](O)C[C@@H](O)[C@H](O)CC[C@@H](O)C[C@@H](O)CC(=O)O[C@H]1C)C[C@H](O)[C@H]2C(=O)O [amphotericin B]
EC50 ([4]; Leishmania amazonensis, RAW264.7, 72 h, read-out: EC50^72 h against intracellular L. amazonensis amastigotes): 77 nM | LD50/EC50 ratio ([7]; intracellular amastigotes): 1 | LD50 72 h ([7]; intracellular washout, 72 h): 82 nM | EC50 ([2]; Leishmania amazonensis; 72 h, axenic amastigotes; read-out: EC50^72 h against L. amazonensis axenic amastigotes): 53 nM

CC(=O)OC[C@H]1O[C@@H]([S-])[C@H](OC(C)=O)[C@@H](OC(C)=O)[C@@H]1OC(C)=O.CCP(CC)CC.[Au+] [auranofin]
relative fluorescence intensity signal vs vehicle (hit definition) [2, 9]: hits

CC(C)(C)[C@H]1CC[C@H](CC2=C(O)C(=O)c3ccccc3C2=O)CC1 [buparvaquone]
relative fluorescence intensity signal vs vehicle (hit definition) [2, 9]: hits

C[C@]1(COc2ccc(N3CCC(Oc4ccc(OC(F)(F)F)cc4)CC3)cc2)Cn2cc([N+](=O)[O-])nc2O1 [delamanid]
relative fluorescence intensity signal vs vehicle (hit definition) [2, 9]: hits

CCCCCCCCCCCCCCCCOP(=O)([O-])OCC[N+](C)(C)C [miltefosine]
percentage of L. amazonensis undergoing cell division [5]: did not affect L. amazonensis cell division | tubulin intensity over control (DMSO-treated) [6]: did not increase tubulin intensity

CC(=O)Oc1ccccc1C(=O)Nc1ncc([N+](=O)[O-])s1 [nitazoxanide]
relative fluorescence intensity signal vs vehicle (hit definition) [2, 9]: hits
